Measurements reported in patent US20110263696A1, “PROANTHOCYANIDINS FROM CINNAMON AND ITS WATER SOLUBLE EXTRACT INHIBIT TAU AGGREGATION” (priority 2007, published 2011).

Target: T1, tau fragment (tau 187) (Homo sapiens, UniProt P10636)
T1 construct: his; made in house; host or cells: bacteria
Experiment: Thioflavin T fluorescence assay of tau aggregation
Assay type: biochemical
Procedure: In one illustrative embodiment of the invention, the effects of cinnamon proanthocyanidin or its extract can be determined by fluorescence measurements in the presence of a thioflavin derivative. If aggregation proceeds through formation of an ordered structure, enhancement of thioflavin occurs. This method can be used to quantify the effects of the proanthocyanidins on the rate and extent of tau aggregation.
An alternative method is to incubate tau in the absence of thioflavin under conditions that cause aggregation in the absence and presence of cinnamon proanthocyanidin. At different times aliquots are removed to measure the aggregation by examining the fluorescence of thioflavin T added to these aliquots. As thioflavin can affect aggregation itself and could compete partly with binding of proanthocyanidin this modified assay could maximize the effect of proanthocyanidin. Because it would necessitate removing aliquots from the reaction at different times and mixing in new reagents, it is less convenient and prone to additional errors.
This conclusion was reached by measuring changes in fluorescence of thioflavin T under conditions well documented to cause formation of tau aggregates.

T1 sequence (P10636 572-758 limits assumed): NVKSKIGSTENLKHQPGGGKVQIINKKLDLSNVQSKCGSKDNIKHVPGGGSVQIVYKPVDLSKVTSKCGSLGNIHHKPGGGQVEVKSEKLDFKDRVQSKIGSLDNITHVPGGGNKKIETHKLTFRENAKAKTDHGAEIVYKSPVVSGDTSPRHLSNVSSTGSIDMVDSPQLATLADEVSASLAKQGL

Question: “A-linked proanthocyanidin trimer [A-type trimer]” was tested. Which “Inhibition of tau 187 aggregation by thioflavin T fluorescence” value did it give?
Answer: The value was “reduces aggregation of tau”.
